In brackets after ≈: the same amount, converted by molar mass. Like-named read-outs stand apart in the source and are kept apart here.
Tests used:
Format in all cases: cell-based
[1] = system: intestinal cancer cells (HT29 and Caco-2); assay: MTT cytotoxicity assay, mean for intestinal cancer cells
[2] = system: Caco-2 (ATCC HTB 37) intestinal cancer cells; assay: MTT cytotoxicity assay, Caco-2; details: Homo sapiens, Caco-2, 72 h
[3] = system: Lactobacillus reuteri (CCM 3625); assay: Broth microdilution MIC, L. reuteri; details: Limosilactobacillus reuteri, CCM3625
[4] = system: Clostridium perfringens (DSMZ 11778); assay: microbe, parasite or virus in culture; details: DSMZ11778
[5] = system: Bacteroides fragilis (ATCC 25285); assay: Broth microdilution MIC, B. fragilis
[6] = system: Yersinia enterocolitica (ATCC 9610); assay: Broth microdilution MIC, Y. enterocolitica; details: ATCC9610
[7] = system: HT29 (ATCC HTB 38) intestinal cancer cells; assay: MTT cytotoxicity assay, HT29; details: Homo sapiens; for IC50: read-out: IC50 ± SD; for IC80: read-out: IC80 ± SD (80% inhibitory concentration of proliferation)
[8] = system: Shigella flexneri (ATCC 12022); assay: microbe, parasite or virus in culture; details: ATCC12022
[9] = system: Listeria monocytogenes (ATCC 7644); assay: Broth microdilution MIC, L. monocytogenes
[10] = system: Clostridium difficile (DSMZ 12056); assay: microbe, parasite or virus in culture; details: Clostridioides difficile, DSMZ12056
[11] = system: E. coli 0175:H7 (NCTC 12900); assay: microbe, parasite or virus in culture; details: Escherichia coli, NCTC12900
[12] = system: Bifidobacterium bifidum (ATCC 29521); assay: Broth microdilution MIC, B. bifidum
[13] = system: Bifidobacterium longum ssp. longum (DSMZ 20219); assay: Broth microdilution MIC, B. longum ssp. longum; details: DSMZ20219
[14] = system: diarrheagenic bacteria (12 strains); assay: microbe, parasite or virus in culture
[15] = system: FHs 74 Int (ATCC CCL 241) intestinal normal cells; assay: MTT cytotoxicity assay, FHs 74 Int; details: FHs74Int, 72 h; for IC50: read-out: IC50 ± SD; for IC80: read-out: IC80 ± SD (80% inhibitory concentration of proliferation)
[16] = system: Bifidobacterium breve (ATCC 15700); assay: Broth microdilution MIC, B. breve
[17] = system: Lactobacillus rhamnosus (CCM 7091); assay: Broth microdilution MIC, L. rhamnosus; details: Lacticaseibacillus rhamnosus, CCM7091
[18] = system: Bifidobacterium animalis spp. lactis (DSMZ 10140); assay: Broth microdilution MIC, B. animalis spp. lactis; details: DSMZ10140
[19] = system: Enterococcus faecalis (ATCC 29212); assay: Broth microdilution MIC, E. faecalis
[20] = system: Salmonella enterica ssp. enterica serovar Enteritidis (ATCC 13076); assay: Broth microdilution MIC, Salmonella Enteritidis
[21] = system: Escherichia coli (ATCC 25922); assay: Broth microdilution MIC, E. coli
[22] = system: Vibrio parahaemolyticus (ATCC 17802); assay: Broth microdilution MIC, V. parahaemolyticus
[23] = system: Bacillus cereus (ATCC 14579); assay: Broth microdilution MIC, B. cereus
[24] = system: probiotic bacteria (9 strains); assay: Broth microdilution MIC, probiotic bacteria as a group (mean or range over strains); details: read-out: x¯ -PB ± SD: mean MIC for probiotic bacteria
[25] = system: Bifidobacterium adolescentis (DSMZ 20087); assay: Broth microdilution MIC, B. adolescentis
[26] = system: S. enterica ssp. enterica serovar Typhimurium (ATCC 14028); assay: Broth microdilution MIC, Salmonella Typhimurium
[27] = system: Lactobacillus casei (DSMZ 20011); assay: Broth microdilution MIC, L. casei; details: Lacticaseibacillus casei, DSMZ20011
[28] = FHs 74 Int (intestinal normal cells), MTT

Oc1cccc2cccnc12 [8HQ, 8-hydroxyquinoline]
IC50 ([1]; read-out: x¯ -CC ± SD: mean IC50 for intestinal cancer cells): 0.8 ± 0.5 µg/mL (≈ 5.51 µM)
IC80 ([1]; read-out: x¯ -CC ± SD: mean IC80 for intestinal cancer cells): 2.9 ± 2 µg/mL (≈ 20 µM)
IC50 ([2]; read-out: IC50 ± SD): 0.3 ± 0.1 µg/mL (≈ 2.07 µM)
IC80 ([2]; read-out: IC80 ± SD (80% inhibitory concentration of proliferation)): 0.9 ± 0.1 µg/mL (≈ 6.2 µM)
MIC [3]: > 512 µg/mL
MIC [4]: 128 µg/mL (≈ 882 µM)
MIC ([5]; ATCC25285): 32 µg/mL (≈ 220 µM)
MIC [6]: 512 µg/mL (≈ 3530 µM)
IC50 ([7]; HT-29, 72 h): 1.3 ± 0.3 µg/mL (≈ 8.96 µM)
IC80 ([7]; HT-29, 72 h): 4.8 ± 2.8 µg/mL (≈ 33.1 µM)
MIC [8]: 128 µg/mL (≈ 882 µM)
MIC ([9]; ATCC7644): 1 µg/mL (≈ 6.89 µM)
MIC [10]: 128 µg/mL (≈ 882 µM)
MIC [11]: 256 µg/mL (≈ 1760 µM)
MIC ([12]; ATCC29521): 512 µg/mL (≈ 3530 µM)
MIC ([13]; Bifidobacterium longum): 512 µg/mL (≈ 3530 µM)
MIC ([14]; read-out: x¯ -DB ± SD: mean MIC for diarrheagenic bacteria): 224 ± 181 µg/mL (≈ 1550 µM)
IC50 [15]: 10.7 ± 0.2 µg/mL (≈ 73.7 µM)
IC80 [15]: 20.3 ± 2.4 µg/mL (≈ 140 µM)
MIC ([16]; ATCC15700): > 512 µg/mL
MIC [17]: > 512 µg/mL
MIC ([18]; Bifidobacterium animalis): > 512 µg/mL
MIC ([19]; ATCC29212): 4 µg/mL (≈ 27.6 µM)
MIC [20]: 256 µg/mL (≈ 1760 µM)
MIC ([21]; ATCC25922): 128 µg/mL (≈ 882 µM)
MIC ([22]; ATCC17802): 128 µg/mL (≈ 882 µM)
MIC ([23]; ATCC14579): 512 µg/mL (≈ 3530 µM)
MIC [24]: 743 ± 343 µg/mL (≈ 5120 µM)
MIC ([25]; DSMZ20087): 512 µg/mL (≈ 3530 µM)
MIC [26]: 512 µg/mL (≈ 3530 µM)
MIC [27]: > 512 µg/mL

O=C(O)c1cn(C2CC2)c2cc(N3CCNCC3)c(F)cc2c1=O [CP, ciprofloxacin]
MIC ([3]; Lactobacillus reuteri, growth inhibited by ≥80%, read-out: MIC): 32 µg/mL (≈ 96.6 µM)
MIC ([5]; ATCC25285, growth inhibited by ≥80%, read-out: MIC): 8 µg/mL (≈ 24.1 µM)
IC50 ([7]; HT-29, HT29, MTT, 72 h): 130 ± 13 µg/mL (≈ 393 µM)
IC80 ([7]; HT-29, HT29, MTT, 72 h): > 512 µg/mL
MIC [8]: 0.016 µg/mL (≈ 0.0483 µM)
MIC ([9]; ATCC7644, growth inhibited by ≥80%, read-out: MIC): 4 µg/mL (≈ 12.1 µM)
MIC [11]: 0.016 µg/mL (≈ 0.0483 µM)
MIC ([12]; ATCC29521, growth inhibited by ≥80%, read-out: MIC): 16 µg/mL (≈ 48.3 µM)
MIC ([13]; Bifidobacterium longum ssp. longum, growth inhibited by ≥80%, read-out: MIC): 16 µg/mL (≈ 48.3 µM)
MIC ([14]; all gram-negative diarrheagenic bacteria, range over strains, read-out: MICs): 0.016 to 0.125 µg/mL (≈ 0.0483 to 0.377 µM)
MIC ([14]; gram-positive pathogens, range over strains, read-out: MICs): 1 to 16 µg/mL (≈ 3.02 to 48.3 µM)
MIC ([14]; mean of 12 strains, >512 replaced with 1024, read-out: x¯ -DB ± SD: mean MIC for diarrheagenic bacteria): 2 ± 4 µg/mL (≈ 6.04 µM)
IC50 [15, 28]: 51.8 ± 27 µg/mL (≈ 156 µM)
IC80 [15, 28]: 130 ± 24 µg/mL (≈ 391 µM)
MIC ([16]; ATCC15700, growth inhibited by ≥80%, read-out: MIC): 64 µg/mL (≈ 193 µM)
MIC ([17]; Lactobacillus rhamnosus, growth inhibited by ≥80%, read-out: MIC): 4 µg/mL (≈ 12.1 µM)
MIC ([18]; Bifidobacterium animalis spp. lactis, growth inhibited by ≥80%, read-out: MIC): 32 µg/mL (≈ 96.6 µM)
MIC ([19]; ATCC29212, growth inhibited by ≥80%, read-out: MIC): 2 µg/mL (≈ 6.04 µM)
MIC ([20]; Salmonella Enteritidis, growth inhibited by ≥80%, read-out: MIC): 0.031 µg/mL (≈ 0.0936 µM)
MIC ([21]; ATCC25922, growth inhibited by ≥80%, read-out: MIC): 0.062 µg/mL (≈ 0.187 µM)
MIC ([22]; ATCC17802, growth inhibited by ≥80%, read-out: MIC): 0.062 µg/mL (≈ 0.187 µM)
MIC ([23]; ATCC14579, growth inhibited by ≥80%, median/mode, read-out: MIC): 1 µg/mL (≈ 3.02 µM)
MIC ([24]; mean of 9 strains, >512 replaced with 1024): 23.6 ± 18 µg/mL (≈ 71.2 µM)
MIC ([25]; DSMZ20087, growth inhibited by ≥80%, read-out: MIC): 8 µg/mL (≈ 24.1 µM)
MIC ([26]; Salmonella Typhimurium, growth inhibited by ≥80%, read-out: MIC): 0.031 µg/mL (≈ 0.0936 µM)
MIC ([27]; Lactobacillus casei, growth inhibited by ≥80%, read-out: MIC): 32 µg/mL (≈ 96.6 µM)
